Measured values published in US10828326B2, “Compositions and methods for treating and preventing venom related poisoning” (priority 2015, dated 2020).

Assays:
human plasma = assay: Thrombelastography of venom naïve human plasma with iron and/or CO addition (Example I); assay type: biochemical; settings: baseline (venom naïve); 10 μM FeCl3 and/or 100 μM CORM-2; compared to plasma without any additions
Procedure: (§1) Two-hundred mg of lyophilized, pooled venom was obtained from four western diamondback rattlesnakes (Crotalus atrox) for experimentation. Venom was reconstituted in calcium-free phosphate buffered saline (PBS, Sigma-Aldrich, Saint Louis, Mo., USA) at a concentration of 20 mg/ml, aliquoted, and then stored at −80° C. until experimentation at the University of Arizona. Pooled human normal plasma (George King Bio-Medical, Overland Park, Kans., USA) anticoagulated with sodium citrate was rapidly thawed at 37° C. and used for experimentation. To assess the effects of pretreatment of fibrinogen with iron, CO, or both, 1% additions of PBS, ferric chloride (FeCl3, 99.9% pure, Sigma-Aldrich, Saint Louis, Mo., USA) in PBS, or CORM-2 (tricarbonyldichlororuthenium (II) dimer, a CO releasing molecule, Sigma-Aldrich, Saint Louis, Mo., USA) dissolved in dimethyl sulfoxide (DMSO, Sigma-Aldrich, Saint Louis, Mo., USA). The final concentrations of FeCl3 and CORM-2 were 10 μM and 100 μM, respectively; these concentrations are associated with nearly maximal augmenting effects on coagulation kinetics (see, Nielsen V G, et al., Blood Coagul Fibrinolysis 2014; 25:695-702). Plasma was exposed to these various agents for at least 5 min prior to incubations with venom.
(§2) The final volume for all subsequently described plasma sample mixtures was 359.4 μl. Sample composition consisted of 326 μl of plasma; 10 μl of tissue factor reagent (0.1% final concentration in distilled water; Diagnostica Stago S.A.S., Asnieres sur Seine, France) and 3.4 μl of PBS or venom (final concentration 0.5 μg/ml). […] The aforementioned plasma and venom mixtures were placed in a disposable cup in a computer-controlled Thrombelastograph® hemostasis system (Model 5000, Haemoscope Corp., Niles, Ill., USA) and incubated for 5 or 20 min at 37° C., with addition of 20 μl of 200 mM CaCl2) as the last step to initiate clotting. Data were collected at 37° C. for 15 min after 5 min of incubation, whereas samples incubated with venom for 20 min had data collected for 30 min, given the prolonged onset of coagulation and diminished rate of thrombus formation. The following elastic modulus-based parameters previously described (see, Nielsen, et al., 2014, Blood Coagul. Fibrinolysis 25:695-702; Nielsen, et al., 2011, Blood Coagul. Fibrinolysis 22: 443-447); Nielsen V G, et al., Blood Coagul Fibrinolysis 2014; 25:845-850) were determined: time to maximum rate of thrombus generation (TMRTG): this is the time interval (min) observed prior to maximum speed of clot growth; maximum rate of thrombus generation (MRTG): this is the maximum velocity of clot growth observed (dynes/cm^2/sec); and total thrombus generation (TTG, dynes/cm^2), the final viscoelastic resistance observed after clot formation.
(§3) Data are presented as mean+SD. A commercially available statistical program was used for one-way analysis of variance followed by Holm-Sidak post hoc analyses (SigmaStat 3.1, Systat Software, Inc., San Jose, Calif., USA). Graphics depicting viscoelastic data were generated with a commercially available program (OrigenPro 7.5, OrigenLab Corporation, Northampton, Mass., USA; CorelDRAW12, Corel Corporation, Mountain View, Calif., USA).

[1] = test system: Crotalus atrox venom-enhanced tissue-type plasminogen activator initiated fibrinolysis; assay: Thrombelastography of human plasma pretreated with iron and/or CO before venom exposure in the presence of tPA (Example II); assay type: biochemical; settings: 100 IU/ml tPA; for time to maximum rate of thrombus generation (TMRTG): 100 μM CORM-2
Procedure: Two hundred mg of lyophilized, pooled venom was obtained from four western diamondback rattlesnakes (Crotalus atrox) for experimentation. Venom was reconstituted in calcium-free phosphate buffered saline (PBS, Sigma-Aldrich, Saint Louis, Mo., USA) at a concentration of 20 mg/ml, aliquoted, and then stored at −80° C. until experimentation at the University of Arizona.
Pooled normal plasma (George King Bio-Medical, Overland Park, Kans., USA) anticoagulated with sodium citrate was rapidly thawed at 37° C. and used for experimentation. To assess the effects of pretreatment of antifibrinolytic plasma proteins with iron, CO, or both, 1% additions of PBS, ferric chloride (FeCl3, 99.9% pure, Sigma-Aldrich, Saint Louis, Mo., USA) in PBS, or CORM-2 (tricarbonyldichlororuthenium (II) dimer, a CO releasing molecule, Sigma-Aldrich, Saint Louis, Mo., USA) dissolved in dimethyl sulfoxide (DMSO, Sigma-Aldrich, Saint Louis, Mo., USA) were used. […] Plasma was exposed to these various agents for at least 5 min prior to incubations with venom.
The final volume for all subsequently described plasma sample mixtures was 359.4 μl. Sample composition consisted of […] of plasma; 10 μl of tissue factor reagent (0.1% final concentration in distilled water; Diagnostica Stago S.A.S., Asnieres sur Seine, France), 10 μl of tissue type plasminogen activator (tPA, 580 IU/μg, Genentech, Inc., San Francisco, Calif., USA; 100 IU/ml final concentration) and 3.4 μl of PBS or venom (final concentration 0.5-2.0 μg/ml). […] The aforementioned plasma and venom mixtures were placed in a disposable cup in a computer-controlled Thrombelastograph® hemostasis system (Model 5000, Haemoscope Corp., Niles, Ill., USA) and incubated for 5 min at 37° C., with addition of 20 μl of 200 mM CaCl2) as the last step to initiate clotting. Data were collected at 37° C. until clot lysis time (CLT) was observed. The following elastic modulus-based parameters previously described (see, Nielsen V G, Pretorius E. Blood Coagul Fibrinolysis 2014; 25:695-702) were determined: time to maximum rate of thrombus generation (TMRTG): this is the time interval (min) observed prior to maximum speed of clot growth; maximum rate of thrombus generation (MRTG): this is the maximum velocity of clot growth observed (dynes/cm^2/sec); total thrombus generation (TTG, dynes/cm^2), the final viscoelastic resistance observed after clot formation; time to maximum rate of lysis (TMRL, min), maximum rate of lysis (MRL, dynes/cm^2/sec) and CLT (min). Lastly, to assess if venom had thrombolytic properties that were tPA independent, n=4 replicates were performed wherein no tPA was added and data were collected for 3 h.
Data are presented as mean±SD. All conditions unless otherwise indicated were represented by n=8 replicates. This number of replicates reliably provides a statistical power>0.8 for P<0.05 (see, Nielsen V G, Pretorius E. Blood Coagul Fibrinolysis 2014; 25:695-702). A commercially available statistical program was used for two-way analysis of variance (ANOVA) to assess interactions of venom and tPA on coagulation kinetics and interactions of iron and CO on venom-enhanced fibrinolysis (SigmaStat 3.1, Systat Software, Inc., San Jose, Calif., USA). Additional one-way ANOVA followed by Holm-Sidak post hoc analyses were performed to assess differences between the conditions. Graphics depicting viscoelastic data were generated with a commercially available program (OrigenPro 7.5, OrigenLab Corporation, Northampton, Mass., USA).

Crotalus atrox venom = assay: Thrombelastography of human plasma pretreated with iron and/or CO, then incubated with Crotalus atrox venom (Example I); assay type: biochemical; settings: 0.5 μg/ml venom, 5 min incubation
Procedure: as §1, §2, §3

[2] = rabbit ear-bleed model; CORM-2 injected at 10 mg/kg (equivalent to 279 μM final concentration); cited from earlier work
C. atrox venom = assay: Isolated venom exposure to FeCl3, CORM-2 or iCORM-2, then thrombelastography in human plasma (Example VI); assay type: biochemical, Crotalus atrox; settings: in words
Procedure: C. atrox venom was obtained from the National Natural Toxins Research Center at Texas A&M University-Kingsville, Tex., USA. Venom was reconstituted in calcium-free phosphate buffered saline (PBS, Sigma-Aldrich, Saint Louis, Mo., USA), and stored at −80° C. Pooled human normal plasma anticoagulated with sodium citrate was obtained from George King Bio-Medical, Overland Park, Kans., USA. Ferric chloride (FeCl3, 99.9% pure), tricarbonyldichlororuthenium (II) dimer (CORM-2), and dimethyl sulfoxide (DMSO) were obtained from Sigma-Aldrich. The final concentrations of FeCl3 (dissolved in PBS) and CORM-2 (dissolved in DMSO) were 0-10 μM and 0-100 μM, respectively; these were the concentrations used in previous works involving the effects of modifying fibrinogen prior to venom exposure in plasma.
To increase the detection of effects of iron/CO on venom activity, the concentration of venom chosen for isolated exposure and for addition to plasma was twice the amount expected to eliminate coagulation based on previous work (see, Nielsen V G, Boyer L V. Iron and carbon monoxide attenuate degradation of plasmatic coagulation by Crotalus atrox venom. Blood Coagul Fibrinolysis. In press). A 1 ml quantity of a 200 μg/ml solution of venom in PBS was prepared for each condition subsequently presented. The conditions were: 1) 1% addition (v/v) of PBS and DMSO to PBS without venom; 2) 1% addition (v/v) of PBS and DMSO to PBS with venom; 3) 1% addition of FeCl3 and CORM-2 to PBS without venom; 4) 1% addition of FeCl3 and CORM-2 to PBS […]) 1% addition of FeCl3 and DMSO to PBS with venom; 6) 1% addition of CORM-2 to PBS with venom; and lastly, 7) 1% addition of PBS and iCORM-2 to PBS with venom. After 3 min of incubation at room temperature, 3.6 μl of solution from one of these conditions was placed into 326 μl of plasma and 10 μl of tissue factor reagent (0.1% final concentration in distilled water; Diagnostica Stago S.A.S., Asnieres sur Seine, France) in a disposable cup in a computer-controlled Thrombelastograph® hemostasis system (Model 5000, Haemonetics Inc., Braintree, Mass., USA). After test solution addition, 20 μl of 200 mM CaCl2 was immediately added to initiate clotting. Data were collected at 37° C. for 15 min. […] 2014; 25(8):801-805) were determined: time to maximum rate of thrombus generation (TMRTG): this is the time interval (min) observed prior to maximum speed of clot growth; maximum rate of thrombus generation (MRTG): this is the maximum velocity of clot growth observed (dynes/cm^2/sec); and total thrombus generation (TTG, dynes/cm^2), the final viscoelastic resistance observed after clot formation. […]

[3] = 10 μM ferric chloride or 100 μM CORM-2, vs matched samples without or with venom exposure (0.5 μg/ml)

Compound	maximum rate of thrombus generation (MRTG) (human plasma)	time to maximum rate of thrombus generation (TMRTG) (human plasma)	total thrombus generation (TTG) (human plasma)	clot lysis time (CLT) [1, 3]	maximum rate of thrombus generation (MRTG) [1, 3]	time to maximum rate of lysis (TMRL) [1, 3]	total thrombus generation (TTG) [1, 3]	time to maximum rate of thrombus generation (TMRTG) ([1]; venom exposed plasma (0.5 μg/ml))	time to maximum rate of thrombus generation (TMRTG) ([1]; venom naïve samples)	maximum rate of thrombus generation (MRTG), change on venom exposure (Crotalus atrox venom; vs matched venom naïve samples)	maximum rate of thrombus generation (MRTG) (Crotalus atrox venom; vs plasma without additions exposed to venom)	clot strength (TTG) (Crotalus atrox venom; vs samples without CO added)	adverse effects [2]	maximum rate of lysis (MRL) ([1]; 100 μM CORM-2 addition followed by venom exposure (0.5 μg/ml))	maximum rate of lysis (MRL) ([1]; 100 μM CORM-2 addition, without venom)	effects on C. atrox venom activity on plasmatic coagulation (C. atrox venom; isolated venom exposure)	coagulation kinetic parameters of plasma after addition of PBS with venom exposed to the agent (C. atrox venom; venom 2 μg/ml final, 10 μM FeCl3, 100 μM CORM-2 or iCORM-2)
tricarbonyldichlororuthenium (II) dimer [CORM-2]	significant increase	no change	significant increase	significantly greater	significantly greater	significantly greater	greater	significantly less	did not significantly affect	significantly decreased	significantly greater	significantly greater					
[C-]#[O+].[C-]#[O+].[C-]#[O+].[C-]#[O+].[C-]#[O+].[C-]#[O+].[Cl][Ru][Cl].[Cl][Ru][Cl] [CORM-2, tricarbonyldichlororuthenium (II) dimer]													without adverse effects noted	reduced MRL to control values	significantly increased	completely inhibited	not different from PBS/DMSO exposed plasma
